# Measured values reported in patent publication US20120052079A1, “Compositions, Kits, and Methods for Predicting Anti-Cancer Response to Anthracyclines” (Dana-Farber Cancer Institute, Inc., priority 2010, published 2012).
# Columns and labels:
# Type in all cases: cell-based, human
# [1] = system: MDA-MB-231 (MDA231), HCC38 and CAMA-1; assay: Cell growth assay, drug sensitivity after LAPTM4B/YWHAZ siRNA knockdown; conditions: siRNA knockdown vs control siRNA
# Experimental: Gene-specific and negative control oligonucleotides (Stealth™ Select RNAi, Invitrogen) were transfected using the Lipofectamine™ RNAi MAX protocol from Invitrogen. Three gene-specific oligonucleotide siRNAs were tested for each gene (LAPTM4b siRNA1: 5′-[…]-3′ and 3′-[…]-5′; LAPTM4b siRNA2: 5′-[…]-3′ and 3′-[…]-5′; LAPTM4b siRNA3: 5′-[…]-3′ and 3′-[…]-5′; LAPTM4b shRNA: Top strand, […], Bottom strand, […]; YWHAZ siRNA1: 5′-[…]-3′ and 3′-[…]-5′; YWHAZ siRNA2: 5′-[…]-3′ and 3′-[…]-5′; and YWHAZ siRNA3: 5′-[…]-3′ and 3′-[…]-5′). Transfections were performed in triplicate and the experiment was repeated four times to estimate the effect and standard deviation from the mean. Because specific antibodies were not available for the 12 genes tested, the effectiveness of siRNA knockdown by each oligonucleotide was determined by qRT-PCR assay of mRNA levels according to methods described herein.
# (§1) Viable cell number was quantified using CellTiter 96® Aqueous One Solution Cell Proliferation Assay (Promega). Results are reported as optical density at 490 nm wavelength. Cells (4,000 well^−1) were seeded into 96-well plates in triplicate. siRNA transfections were performed 24 h after cell seeding. Chemotherapeutic drugs (daunorubicin, doxorubicin, paclitaxel, and cisplatin) were added 24 h after cell seeding or siRNA transfection. Cells were exposed to a series of concentrations of individual drugs for additional 48 h. Results are presented as the percentage of viable cells in drug-treated wells vs. media-treated control wells and plotted as a drug-dose dependent cell survive curve. The dose of drug causing a fifty percent reduction of viable cells (IC50) determined drug sensitivity. Drug-induced apoptosis was evaluated 48 h after drug treatment (doxorubicin at 1 μM or cisplatin at 25 μM) following siRNA transfection by detection of active caspase 3 and cleaved poly(ADP-ribose) polymerase (PARP) by Western blot analysis using caspase 3- and PARP-specific antibodies (Cell Signaling Technology), respectively.
# HMEC cells = assay: Cell growth assay (CellTiter 96), drug IC50 in HMEC transfected with LAPTM4B-HA or YWHAZ-HA; conditions: for effect of exogenous LAPTM4B or YWHAZ on sensitivity to drug: HMEC expressing exogenous LAPTM4B or YWHAZ
# From the text: The full length LAPTM4B and YWHAZ cDNAs linked to an HA tag were cloned into the pWZL (Boehm et al. (2005) Mol. Cell. Biol. 25, 6464-6474) and pBabe vectors, respectively, and packaged using the Phoenix™ Retroviral System from Orbigen. pWZL-LAPTM4B HA and pBabe-YWHAZ-HA were introduced into HMEC cells by retroviral infection and stably selected with blasticidin and puromycin, respectively.
# as §1
# BT549 cells [2] = assay: Cellular distribution of doxorubicin (autofluorescence, confocal)
# Experimental: Twenty-four h after transfection with specific siRNA or control oligos, cells were challenged with 0.5 μM doxorubicin in complete medium for 24 h. After 24 h, the drug was removed and cells were cultured in fresh drug-free medium and examined at 36 and 48 h time points. At each time point, cells were washed twice in PBS, and fixed for 5 min in 3.0% paraformaldehyde and permeabilized in 0.1% Triton X-100 for 5 min. Following washing with PBS, cells were mounted in Prolong Gold® anti-fade reagent with DAPI (Invitrogen). Subcellular localization of doxorubicin was viewed by the Rhodamine (Cy3) channel and nuclear staining was viewed by the DAPI channel on a Zeiss HAL100 fluorescence microscope.
# Forty-eight hours after transfection with specific siRNA or scramble control oligonucleotide, cells were treated with 0.1 μM doxorubicin in complete medium for 24 hours. After 24 hours of drug exposure, the drug was removed and cells were cultured in fresh drug-free medium and examined 24 hours later. Cells were washed, fixed and stained with DAPI as described in Li et al. (2010) Nat. Med., 16, 214-218. Subcellular localization of doxorubicin autofluorescence (excited wave: 480 nm; emitted wave: 560-620 nm) and lysosomes indicated by LysoTracker DND-26 (excited wave: 504 nm; emitted wave: 509-540 nm) was examined on a Leica SP5X Laser Scanning Confocal Microscope with a white light laser.
# MDA-MB-231 cells = assay: Cellular distribution of doxorubicin (autofluorescence); conditions: 0.5 μM doxorubicin; detectable within 12 h to 24 h, sustained at 48 h
# [3] = system: MDA-MB-231 (MDA231) and BT549 cells; assay: Drug-induced apoptosis, Western blot for active caspase 3 and cleaved PARP; conditions: doxorubicin 1 μM or cisplatin 25 μM, 48 h
# Experimental: as §1
# MDA468 cells = assay: Autophagy markers LC3 and p62 by immunoblot, LAPTM4B overexpression; conditions: MDA468 with stable LAPTM4B over expression
# From the text: Band densities were quantified on a AlphaImager HP imaging system (Cell Biosciences).
# BT549 cells [4] = assay: Cathepsin release and Bid, caspase 3, PARP cleavage by immunoblot; conditions: for LAPTM4B knockdown-induced Bid truncation and apoptosis: BT549 pretreated with cathepsin inhibitors
# Experimental: Cytosolic extraction was performed using the detergent digitonin which permeabilizes cholesterol-rich membranes such as plasma membrane, leaving the cholesterol-poor membranes of lysosomes and mitochondria more or less intact. Cells were exposed to an extraction buffer (250 mM sucrose, 20 mM Hepes, 10 mM KCl, 1.5 mM MgCl2, 1 mM EDTA, 1 mM EGTA, and 1 mM Pefabloc, pH 7.5) containing 25 μg/ml digitonin for 20 min on ice, inverting the tubes every 2 min. The extraction buffer was collected and proteins were precipitated by addition of 5% trichloric acid on ice for 10 min and centrifuged at ˜20,800×g for 15 min to obtain the protein pellet. The pellet was dissolved in lysis buffer.
# Tumor cell line lysates or cytosols were fractionated in 7, 12 or 14% SDS-PAGE, electrophoretically transferred to a nitrocellulose membrane and probed with primary antibodies (monoclonal Anti-β-Actin antibody (Sigma), anti-Bid (BD PharMingen), anti-caspase 3, anti-H is, anti-LC3 and anti-PARP antibodies (Cell Signaling Technology), and anti-cathepsin B, anti-cathepsin D, anti-p62, HRP-conjugated secondary antibodies and FITC-conjugated secondary antibodies (Abcam). The probed proteins were visualized using the ECL Western blotting detection system from Pierce according to the manufacturer's instructions. Band densities were quantified on a AlphaImager HP imaging system (Cell Biosciences).
# [5] = BT549 pretreated with pan-caspase inhibitor
compound,measurement,setting,value
CC(=O)O[C@H]1C(=O)[C@@]2(C)[C@H]([C@H](OC(=O)c3ccccc3)[C@]3(O)C[C@H](OC(=O)[C@H](O)[C@@H](NC(=O)c4ccccc4)c4ccccc4)C(C)=C1C3(C)C)[C@]1(OC(C)=O)CO[C@@H]1C[C@@H]2O [paclitaxel],sensitivity to drug after specific knockdown of LAPTM4B and YWHAZ,[1],weaker or no effect
same,effect of exogenous LAPTM4B or YWHAZ on sensitivity to drug,HMEC cells,no significant effect
COc1cccc2c1C(=O)c1c(O)c3c(c(O)c1C2=O)C[C@@](O)(C(C)=O)C[C@@H]3O[C@H]1C[C@H](N)[C@H](O)[C@H](C)O1 [daunorubicin],sensitivity to drug after specific knockdown of LAPTM4B and YWHAZ,[1],increased sensitivity
COc1cccc2c1C(=O)c1c(O)c3c(c(O)c1C2=O)C[C@@](O)(C(=O)CO)C[C@@H]3O[C@H]1C[C@H](N)[C@H](O)[C@H](C)O1 [doxorubicin],doxorubicin distribution after down-regulation of LAPTM4B,"BT549 cells [2]; BT549, LAPTM4B-specific siRNA, 48 hours exposure",release of doxorubicin from lysosomes
same,intracellular distribution of doxorubicin autofluorescence,"BT549 cells [2]; BT549 overexpressing LAPTM4B, Lysotracker green DND-26",co-localizes with the lysosome marker
same,nuclear localization of doxorubicin after LAPTM4B siRNA knockdown,MDA-MB-231 cells,substantial increase in nuclear localization
same,drug-induced apoptosis after knockdown of LAPTM4B or YWHAZ,[3],considerably increased
same,sensitivity to drug after specific knockdown of LAPTM4B and YWHAZ,[1],increased sensitivity
same,increase in IC50 of doxorubicin,"HMEC cells; HMEC expressing exogenous LAPTM4B vs control vector, P<0.002",270%
same,increase in IC50 of doxorubicin,"HMEC cells; HMEC expressing exogenous YWHAZ vs control vector, P=0.0001",394%
CCN(CC)CCCC(C)Nc1ccnc2cc(Cl)ccc12 (stereo not drawn) [chloroquine],"starvation-induced autophagy (higher LC3II, lower p62) by LAPTM4B over expression",MDA468 cells,blocked
z-Val-Ala-Asp-fluoromethylketone [z-VAD-FMK],Bid truncation after LAPTM4B knockdown,BT549 cells [4]; [5],did not prevent Bid truncation
same,caspase 3 activation after LAPTM4B knockdown,BT549 cells [4]; [5],sufficient to abrogate caspase 3 activation
pepstatin A,LAPTM4B knockdown-induced Bid truncation and apoptosis,BT549 cells [4],protected
N.N.[Cl][Pt][Cl] [cisplatin],drug-induced apoptosis after knockdown of LAPTM4B or YWHAZ,[3],less apparent
same,sensitivity to drug after specific knockdown of LAPTM4B and YWHAZ,[1],weaker or no effect
same,effect of exogenous LAPTM4B or YWHAZ on sensitivity to drug,HMEC cells,no significant effect
"CCOC(=O)[C@H]1O[C@@H]1C(=O)N[C@@H](CC(C)C)C(=O)NCCC(C)C (relative stereo) [EST, trans-epoxysuccinyl-L-leucylamindo-3-methylbutane ethyl ester]",LAPTM4B knockdown-induced Bid truncation and apoptosis,BT549 cells [4],protected
